Measurements: patent US7138361B2, “Herbicidal heterocycles” (E. I. du Pont de Nemours and Company, priority 2000, dated 2006)

How the values were obtained:
Format in all cases: in vivo
Nightshade [1] = assay: Test C preemergence; settings: Rate 500 g/ha, visual evaluation after 12 to 14 days
[2] = tested on: smallflower flatsedge (Cyperus difformis); assay: Test C flooded paddy test; settings: for Plant response rating, Flatsedge: scale 0 to 100 (0 no effect, 100 complete control)
Procedure, shortened: (§1)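 Visual injury score, 0 (no effect) to 100 (complete control), relative to controls. Paddy plants treated at 2-leaf stage; greenhouse hold 12–14 d before rating.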

[3] = tested on: duck salad (Heteranthera limosa); assay: Test C flooded paddy test; settings: for Plant response rating, Ducksalad: scale 0 to 100 (0 no effect, 100 complete control)
Procedure, shortened: as §1

rice (Oryza saliva) = assay: Test C flooded paddy test; settings: for Plant response rating, Rice: scale 0 to 100 (0 no effect, 100 complete control)
Procedure, shortened: as §1

[4] = tested on: bermudagrass (Cynodon dactylon); assay: Test C preemergence
Procedure, shortened: (§2)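 Pre- and postemergence treatments used a non-phytotoxic solvent/surfactant formulation; post-treated plants measured 2 to 18 cm. Greenhouse hold 12–14 d; % control estimated visually relative to controls.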

[5] = tested on: woolly cupgrass (Eriochloa villosa); assay: Test C preemergence
Procedure, shortened: as §2

[6] = tested on: Surinam grass (Brachiaria decumbens); assay: Test C preemergence
Procedure, shortened: as §2

[7] = tested on: morningglory (Ipomoea hederacea); assay: Test C preemergence
Procedure, shortened: as §2

[8] = tested on: common ragweed (Ambrosia elatior); assay: Test C preemergence
Procedure, shortened: as §2

soybean (Glycine max) = assay: Test C preemergence
Procedure, shortened: as §2

corn (Zea mays) = assay: Test C preemergence
Procedure, shortened: as §2

Nightshade [9] = assay: Test C preemergence
[10] = tested on: pigweed (Amaranthus retroflexus); assay: Test C preemergence
Procedure, shortened: as §2

[11] = tested on: giant foxtail (Setaria faberii); assay: Test C preemergence
Procedure, shortened: as §2

Sunflower = assay: Test C preemergence; settings: Rate 125 g/ha; scale 0 to 100, 0 no effect, 100 complete control
kochia (Kochia scoparia) = assay: Test C preemergence
Procedure, shortened: as §2

[12] = tested on: goosegrass (Eleusine indica); assay: Test C preemergence
Procedure, shortened: as §2

[13] = tested on: yellow nutsedge (Cyperus esculentus); assay: Test C preemergence
Procedure, shortened: as §2

[14] = tested on: lambsquarters (Chenopodium album); assay: Test C preemergence
Procedure, shortened: as §2

[15] = tested on: velvetleaf (Abutilon theophrasti); assay: Test C preemergence
Procedure, shortened: as §2

[16] = tested on: cocklebur (Xanthium strumarium); assay: Test C preemergence
Procedure, shortened: as §2

[17] = tested on: crabgrass (Digitaria sanguinalis); assay: Test C preemergence
Procedure, shortened: as §2

[18] = tested on: johnsongrass (Sorghum halepense); assay: Test C preemergence
Procedure, shortened: as §2

[19] = Flooded Paddy, Rate 500 g/ha, scale 0 to 100, 0 no effect, 100 complete control
[20] = flooded paddy test, Rate 125 g/ha
[21] = flooded paddy test, Rate 250 g/ha
[22] = flooded paddy test, Rate 62 g/ha, visually evaluated after 12 to 14 days, 0 = no effect, 100 = complete control
[23] = Rate 125 g/ha, scale 0 to 100, 0 no effect, 100 complete control
[24] = preemergence, Rate 62 g/ha, scale 0 to 100
[25] = preemergence, Rate 500 g/ha, visual evaluation after 12 to 14 days
[26] = preemergence, Rate 250 g/ha, scale 0 to 100, 0 no effect, 100 complete control

Structure (SMILES): CCC(C)c1ccn(C2CCN(c3ccc(F)c(C(F)(F)F)c3)C2=O)n1 (stereo not drawn) [Compound 145]
- Plant response rating (0 to 100), Nightshade (Nightshade [1]): 90
- Flatsedge plant response rating [2, 19]: 95
- Plant response rating, Flatsedge [2, 20]: 80
- Plant response rating, Flatsedge [2, 21]: 95
- Plant response rating (scale 0 to 100), Flatsedge [2, 22]: 40
- Ducksalad plant response rating [3, 19]: 80
- Plant response rating, Ducksalad [3, 20]: 25
- Plant response rating, Ducksalad [3, 21]: 80
- Plant response rating (scale 0 to 100), Ducksalad [3, 22]: 20
- Rice plant response rating (rice (Oryza saliva); [19]): 60
- Plant response rating, Rice (rice (Oryza saliva); [20]): 0
- Plant response rating, Rice (rice (Oryza saliva); [21]): 20
- Plant response rating (scale 0 to 100), Rice (rice (Oryza saliva); [22]): 0
- Plant response rating, Bermudagrass [4, 23]: 100
- Plant response rating, Bermudagrass [4, 24]: 60
- Plant response rating (0 to 100 where 0 is no effect and 100 is complete control), Bermudagrass [4, 25]: 100
- Plant response rating, Bermudagrass [4, 26]: 100
- Plant response rating, Cupgrass, Woolly [5, 23]: 100
- Plant response rating, Cupgrass, Woolly [5, 24]: 20
- Plant response rating (0 to 100), Cupgrass, Woolly [5, 25]: 100
- Plant response rating, Cupgrass, Woolly [5, 26]: 100
- Plant response rating, Surinam grass [6, 23]: 50
- Plant response rating, Surinam grass [6, 24]: 0
- Plant response rating (0 to 100), Surinam grass [6, 25]: 100
- Plant response rating, Surinam grass [6, 26]: 90
- Plant response rating, Morningglory [7, 23]: 100
- Plant response rating, Morningglory [7, 24]: 0
- Plant response rating, Morningglory [7, 26]: 100
- Plant response rating, Ragweed, Common [8, 23]: 0
- Plant response rating, Ragweed, Common [8, 24]: 0
- Plant response rating (0 to 100), Ragweed, Common [8, 25]: 20
- Plant response rating, Ragweed, Common [8, 26]: 0
- Plant response rating, Soybean (soybean (Glycine max); [23]): 30
- Plant response rating, Soybean (soybean (Glycine max); [24]): 20
- Plant response rating (0 to 100), Soybean (soybean (Glycine max); [25]): 60
- Plant response rating, Soybean (soybean (Glycine max); [26]): 30
- Plant response rating, Corn (corn (Zea mays); [23]): 20
- Plant response rating, Corn (corn (Zea mays); [24]): 0
- Plant response rating (0 to 100), Corn (corn (Zea mays); [25]): 40
- Plant response rating, Corn (corn (Zea mays); [26]): 40
- Plant response rating, Nightshade (Nightshade [9]; Rate 62 g/ha, scale 0 to 100): 0
- Plant response rating, Nightshade (Nightshade [9]; [23]): 10
- Plant response rating, Nightshade (Nightshade [9]; Rate 250 g/ha, scale 0 to 100, 0 no effect, 100 complete control): 20
- Plant response rating, Pigweed [10, 23]: 100
- Plant response rating, Pigweed [10, 24]: 100
- Plant response rating (0 to 100), Pigweed [10, 25]: 100
- Plant response rating, Pigweed [10, 26]: 100
- Plant response rating, Foxtail, Giant [11, 23]: 100
- Plant response rating, Foxtail, Giant [11, 24]: 100
- Plant response rating (0 to 100), Foxtail, Giant [11, 25]: 100
- Plant response rating, Foxtail, Giant [11, 26]: 100
- Plant response rating, Sunflower (Sunflower): 0
- Plant response rating, Kochia (kochia (Kochia scoparia); [23]): 100
- Plant response rating, Kochia (kochia (Kochia scoparia); [24]): 100
- Plant response rating (0 to 100), Kochia (kochia (Kochia scoparia); [25]): 100
- Plant response rating, Kochia (kochia (Kochia scoparia); [26]): 100
- Plant response rating, Goosegrass [12, 23]: 100
- Plant response rating, Goosegrass [12, 24]: 90
- Plant response rating (0 to 100), Goosegrass [12, 25]: 100
- Plant response rating, Goosegrass [12, 26]: 100
- Plant response rating, Nutsedge [13, 23]: 0
- Plant response rating, Nutsedge [13, 24]: 0
- Plant response rating (0 to 100), Nutsedge [13, 25]: 0
- Plant response rating, Nutsedge [13, 26]: 0
- Plant response rating, Lambsquarters [14, 23]: 100
- Plant response rating, Lambsquarters [14, 24]: 100
- Plant response rating (0 to 100), Lambsquarters [14, 25]: 100
- Plant response rating, Lambsquarters [14, 26]: 100
- Plant response rating, Velvetleaf [15, 23]: 0
- Plant response rating, Velvetleaf [15, 24]: 0
- Plant response rating (0 to 100), Velvetleaf [15, 25]: 20
- Plant response rating, Velvetleaf [15, 26]: 0
- Plant response rating, Cocklebur [16, 23]: 20
- Plant response rating, Cocklebur [16, 24]: 0
- Plant response rating (0 to 100), Cocklebur [16, 25]: 60
- Plant response rating, Cocklebur [16, 26]: 50
- Plant response rating, Crabgrass [17, 23]: 100
- Plant response rating, Crabgrass [17, 24]: 100
- Plant response rating (0 to 100), Crabgrass [17, 25]: 100
- Plant response rating, Crabgrass [17, 26]: 100
- Plant response rating, Johnsongrass [18, 23]: 10
- Plant response rating, Johnsongrass [18, 24]: 0
- Plant response rating (0 to 100), Johnsongrass [18, 25]: 90
- Plant response rating, Johnsongrass [18, 26]: 20
